Source: PubChem BioAssay (NCI)
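These data come from cells grown in 96-well plates and exposed to compound for 48 hours at five concentrations. GI50 marks 50% less growth. Definition used: TGI = concentration required for complete inhibition of growth.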

Tests used:
Experiment in all cases: inhibition of tumour cell growth, NCI panel, 48 h
[1] = tested on: NCI/ADR-RES ovarian
[2] = tested on: MCF7 breast
[3] = tested on: T-47D breast
[4] = tested on: PC-3 prostate
[5] = tested on: MDA-MB-435
[6] = tested on: KM20L2 colon
[7] = tested on: M19-MEL melanoma
[8] = tested on: LXFL 529 NSCLC

Row | Compound | GI50 [1] [µM] | TGI [1] [µM] | GI50 [2] [µM] | TGI [2] [µM] | GI50 [3] [µM] | TGI [3] [µM] | GI50 [4] [µM] | TGI [4] [µM] | GI50 [5] [µM] | TGI [5] [µM] | TGI [6] [µM] | TGI [7] [µM] | TGI [8] [µM]
1 | Nc1ncnc2occ(-c3ccc(NC(=O)Nc4cc(C(F)(F)F)cc(C(F)(F)F)c4)cc3)c12 | 3.44 | 9.07 | 3.19 | 6.96 | 3.27 | 7.54 | 3.07 | 8.33 | 3.45 | 7.15 |  |  | 
2 | Cc1ccc(C2=Nc3c(N)ncnc3NC(c3cccc(Nc4ccnc5cc(C(F)(F)F)ccc45)c3)C2)cc1 (centres undefined) | 2.96 | 10.2 | 2.41 | 11.5 | 4.45 | > 100 | 2.8 | 12.5 | 1.94 | 4.84 |  |  | 
3 | CCOC(=O)c1[nH]c2c(c1C)-c1[nH]c(=O)c(S(=O)(=O)c3ccccc3)cc1SC2 | 52.9 | > 100 | 40.4 | > 100 | 15.4 | 58.9 | 17.7 | > 100 | 42.8 | > 100 |  |  | 
4 | COc1ccc(C2=CC(c3cc(OC)c(OC)c(OC)c3)n3ncnc3N2)cc1 (centres undefined) | 0.0444 | 20.3 | 0.0399 | 13.7 |  |  | 0.0536 | > 100 |  |  |  |  | 
5 | CC(CS(=O)(=O)Cc1ccccc1)C(N)=O (centres undefined) |  | > 100 |  | > 100 |  | > 100 |  | > 100 |  | > 100 |  |  | 
6 | N#CC1c2ccccc2-c2ccccc2N1C(=O)c1ccccc1 (centres undefined) | 1.81 | > 100 | 1.3 | > 100 | 25.7 | > 100 | 6.86 | > 100 | 0.255 | 0.761 |  |  | 
7 | Cc1ccc(NCSc2ccc(Cl)cc2)cc1 | > 100 | > 100 | > 100 | > 100 | 9.55 | > 100 | 10.2 | > 100 | 9.99 | > 100 |  |  | 
8 | COc1ccccc1Cn1cc2c(c1)-c1oncc1CC2 | 0.529 | 3.7 | 0.381 | > 66.5 | 2.15 | > 100 | 2.01 | > 100 | 0.208 | 0.545 |  |  | 
9 | Cc1nn(-c2ccccc2)c2c1C1C(=C(c3ccc(Cl)cc3)N2)C(=O)Nc2ccccc21 (centres undefined) | 4.32 | > 100 | 3.16 | > 100 | 4.33 | 38.5 | 2.65 | 13.1 | 3.26 | 17.2 |  |  | 
10 | O=c1oc(-c2ccc(O)c(O)c2)cc2cc(O)cc(O)c12 | 33.5 | > 100 | 42.7 | > 100 | 54.5 | > 100 | 31.6 | > 100 | 33 | > 100 |  |  | 
11 | COc1ccc2cccc(C(=N)c3ccc(C)c4c3CCC4)c2c1 |  |  |  |  |  |  |  |  |  |  | 19.3 | 21.5 | 16.5
